Experimental data from patent publication US20250144067A1, “PERSONALIZED STARVATION THERAPY FOR CANCER” (Faeth Therapeutics, Inc., priority 2021, published 2025).
Structures can show the parent of a compound that is named as a salt. Where two headings read alike, the source gives them in different places. Peptide text beside a SMILES is read from it.

Key:
[1] = tested on: NCI-H292 lung cancer cells; assay: FDA drug screening, complete media vs cholesterol-free media with simvastatin (TABLE 2); format: cell-based, human
[2] = tested on: NCI-H292 lung cancer cells; assay: FDA drug screening, complete media vs cholesterol-free media without statin (TABLE 1); format: cell-based, human
[3] = NCI-H292 cells, cholesterol-free media with simvastatin 0.04 μM, cell growth value in FDA drug screen
[4] = NCI-H292 cells, complete media, cell growth value in FDA drug screen
[5] = complete media minus cholesterol-free media + simvastatin, >0 enhanced anti-cancer activity, about 0 neutral, <0 antagonist
[6] = Complete minus Cholesterol-free, >0 enhanced anti-cancer activity, about 0 neutral, <0 antagonist
[7] = NCI-H292 cells, cholesterol-free media without statin
[8] = NCI-H292 cells, cholesterol-free media with simvastatin 0.04 μM, FDA drug library screen (TABLE 2)
[9] = NCI-H292 cells, complete media, FDA drug library screen (TABLE 2)
[10] = complete media minus cholesterol-free media + simvastatin (0.04 μM), >0 enhanced anti-cancer activity, about 0 neutral, <0 antagonist
[11] = Complete minus Cholesterol-free, greater than 0 enhanced anti-cancer activity, about 0 neutral, below 0 antagonists
[12] = NCI-H292 cells in cholesterol-free media without statin
[13] = NCI-H292 cells in complete media
[14] = complete media minus cholesterol-free media + simvastatin (0.04 μM), […]
[15] = Complete minus Cholesterol-free, […]
[16] = NCI-H292 cells, cholesterol-free media without statin, FDA drug library screen
[17] = NCI-H292 cells, complete media, FDA drug library screen
[18] = NCI-H292 cells, FDA drug library screen, cholesterol-free media with simvastatin 0.04 μM
[19] = NCI-H292 cells, FDA drug library screen, complete media
[20] = complete media vs cholesterol-free media + simvastatin (0.04 μM), >0 enhanced anti-cancer activity, about 0 neutral, <0 antagonist
[21] = complete vs cholesterol-free media, >0 enhanced anti-cancer activity, about 0 neutral, <0 antagonist
[22] = NCI-H292 cells, drug in cholesterol-free media with simvastatin 0.04 μM
[23] = NCI-H292 cells, drug in complete media
[24] = Complete minus Cholesterol-free, greater than 0 enhanced anti-cancer activity, about 0 neutral, below 0 antagonist
[25] = NCI-H292 cells, FDA drug library screen, cholesterol-free media without statin
[26] = complete vs cholesterol-free media, […]
[27] = complete media vs cholesterol-free media + simvastatin (0.04 μM), […]

Structure (SMILES): CC(C)(O)CNc1nc(Nc2ccnc(C(F)(F)F)c2)nc(-c2cccc(C(F)(F)F)n2)n1 [Enasidenib]
- Cholesterol-free media + simvastatin (0.04 μM) [1, 3]: 0.8158
- Complete Media [1, 4]: 0.8552
- Difference [1, 5]: 0.04
- Difference [2, 6]: −0.30
- Cholesterol-free [2, 7]: 1.312
- Complete ([2]; NCI-H292 cells, complete media): 1.013

Structure (SMILES): COC(=O)N[C@@H](C)CNc1nccc(-c2cn(C(C)C)nc2-c2cc(Cl)cc(NS(C)(=O)=O)c2F)n1 [Encorafenib]
- Cholesterol-free media + simvastatin (0.04 μM) [1, 8]: 0.6063
- Complete Media [1, 9]: 0.5501
- Difference [1, 10]: −0.06
- Difference [2, 6]: −0.19
- Cholesterol-free [2, 7]: 0.5021
- Complete ([2]; NCI-H292 cells, complete media): 0.3116

Structure (SMILES): CCn1cc(C(=O)O)c(=O)c2cc(F)c(N3CCNCC3)nc21 [Enoxacin (hydrate)]
- Cholesterol-free media + simvastatin (0.04 μM) [1, 8]: 1.166
- Complete Media [1, 9]: 1.164
- Difference [1, 10]: 0.00
- Difference [2, 11]: −0.49
- Cholesterol-free [2, 12]: 1.532
- Complete [2, 13]: 1.045

Structure (SMILES): O=S(=O)(O)c1ccc2[nH]c(-c3ccccc3)nc2c1 [Ensulizole]
- Cholesterol-free media + simvastatin (0.04 μM) [1, 8]: 0.9021
- Complete Media [1, 9]: 0.8833
- Difference [1, 14]: −0.02
- Difference [2, 15]: 0.07
- Cholesterol-free [2, 16]: 0.8614
- Complete [2, 17]: 0.9314

Structure (SMILES): CCN(CC)C(=O)/C(C#N)=C/c1cc(O)c(O)c([N+](=O)[O-])c1 [Entacapone]
- Cholesterol-free media + simvastatin (0.04 μM) [1, 18]: 1.719
- Complete Media [1, 19]: 1.579
- Difference [1, 20]: −0.14
- Cholesterol-free [2, 16]: 0.7629
- Complete [2, 17]: 0.9193
- Difference [2, 21]: 0.16

Structure (SMILES): C=C1[C@H](CO)[C@@H](O)C[C@@H]1n1cnc2c(=O)[nH]c(N)nc21 [Entecavir (monohydrate)]
- Cholesterol-free media + simvastatin (0.04 μM) [1, 22]: 1.17
- Complete Media [1, 23]: 0.9716
- Difference [1, 20]: −0.20
- Difference [2, 11]: −0.52
- Cholesterol-free [2, 12]: 1.519
- Complete [2, 13]: 1

Structure (SMILES): CN1CCN(c2ccc(C(=O)Nc3n[nH]c4ccc(Cc5cc(F)cc(F)c5)cc34)c(NC3CCOCC3)c2)CC1 [Entrectinib]
- Cholesterol-free media + simvastatin (0.04 μM) [1, 3]: 0.2455
- Complete Media [1, 4]: 0.2696
- Difference [1, 5]: 0.02
- Difference [2, 6]: −0.05
- Cholesterol-free [2, 16]: 0.4371
- Complete [2, 17]: 0.3827

Structure (SMILES): CNC(=O)c1ccc(N2C(=S)N(c3ccc(C#N)c(C(F)(F)F)c3)C(=O)C2(C)C)cc1F [Enzalutamide]
- Cholesterol-free media + simvastatin (0.04 μM) ([1]; NCI-H292 cells, FDA library drug in cholesterol-free media with simvastatin 0.04 μM): 0.7893
- Complete Media ([1]; NCI-H292 cells, FDA library drug in complete media): 0.3116
- Difference [1, 20]: −0.48
- Cholesterol-free [2, 16]: 0.885
- Complete [2, 17]: 1.326
- Difference [2, 21]: 0.44

Structure (SMILES): CC(/C=C1\SC(=S)N(CC(=O)O)C1=O)=C\c1ccccc1 [Epalrestat]
- Cholesterol-free media + simvastatin (0.04 μM) [1, 18]: 0.9966
- Complete Media [1, 19]: 0.8579
- Difference [1, 20]: −0.14
- Difference [2, 6]: −0.29
- Cholesterol-free [2, 7]: 1.235
- Complete ([2]; NCI-H292 cells, complete media): 0.9425

Structure (SMILES): CCc1ccc(C(=O)C(C)CN2CCCCC2)cc1 (centres unmarked) [Eperisone (Hydrochloride)]
- Cholesterol-free media + simvastatin (0.04 μM) [1, 18]: 1.323
- Complete Media [1, 19]: 1.222
- Difference [1, 20]: −0.10
- Difference [2, 24]: −0.09
- Cholesterol-free [2, 25]: 0.978
- Complete [2, 19]: 0.8889

Structure (SMILES): NC1=NCC2c3ccccc3Cc3ccccc3N12 (centres unmarked) [Epinastine (hydrochloride)]
- Cholesterol-free media + simvastatin (0.04 μM) [1]: 1.515
- Complete Media [1]: 1.132
- Difference [1]: −0.38
- Cholesterol-free [2]: 1.415
- Complete [2]: 0.8806
- Difference [2]: −0.53

Structure (SMILES): NC1=NCC2c3ccccc3Cc3ccccc3N12 (centres unmarked) [Epinastine]
- Cholesterol-free media + simvastatin (0.04 μM) [1]: 0.9831
- Complete Media [1]: 0.9656
- Difference [1]: −0.02
- Cholesterol-free [2]: 0.9643
- Complete [2]: 0.9792
- Difference [2]: 0.01

Structure (SMILES): COc1cccc2c1C(=O)c1c(O)c3c(c(O)c1C2=O)C[C@@](O)(C(=O)CO)C[C@@H]3O[C@H]1C[C@H](N)[C@@H](O)[C@H](C)O1 [Epirubicin (hydrochloride)]
- Cholesterol-free media + simvastatin (0.04 μM) [1, 18]: 0.1295
- Complete Media [1, 19]: −0.004785
- Difference [1, 20]: −0.13
- Difference [2, 6]: −0.01
- Cholesterol-free [2, 16]: −0.006463
- Complete [2, 17]: −0.01887

Structure (SMILES): COC(=O)[C@@H]1CC2=CC(=O)CC[C@]2(C)[C@@]23O[C@@H]2C[C@@]2(C)[C@@H](CC[C@@]24CCC(=O)O4)[C@H]13 [Eplerenone]
- Cholesterol-free media + simvastatin (0.04 μM) [1, 22]: 1.039
- Complete Media [1, 23]: 0.8449
- Difference [1, 20]: −0.19
- Cholesterol-free [2, 16]: 1.018
- Complete [2, 17]: 1.291
- Difference [2, 21]: 0.27

Structure (SMILES): CCOC(CN1CCN(CC(C)C(=O)c2ccccc2)CC1)c1ccccc1 (centres unmarked) [Eprazinone (dihydrochloride)]
- Cholesterol-free media + simvastatin (0.04 μM) [1, 8]: 0.9386
- Complete Media [1, 9]: 0.9227
- Difference [1, 10]: −0.02
- Difference [2, 24]: −0.09
- Cholesterol-free [2, 25]: 1.265

Structure (SMILES): CC(C)(C)NC(=O)[C@H]1CC[C@H]2[C@@H]3CC=C4C=C(C(=O)O)CC[C@]4(C)[C@H]3CC[C@]12C [Epristeride]
- Cholesterol-free media + simvastatin (0.04 μM) [1, 18]: 0.7018
- Complete Media [1, 19]: 0.8964
- Difference [1, 5]: 0.19
- Cholesterol-free [2, 16]: 0.5663
- Complete [2, 17]: 1.029
- Difference [2, 21]: 0.46

Structure (SMILES): N=C(N)NCCCC[C@@H]1NC(=O)CCSSC[C@@H](C(N)=O)NC(=O)[C@@H]2CCCN2C(=O)[C@H](Cc2c[nH]c3ccccc23)NC(=O)[C@H](CC(=O)O)NC(=O)CNC1=O [Eptifibatide] (HELM PEPTIDE1{[O=C(CCS[*:3])[*:2]].[N=C(N)NCCCC[C@H](N[*:1])C(=O)[*:2]].G.D.W.P.C.[am]}$PEPTIDE1,PEPTIDE1,1:R3-7:R3$$$V2.0)
- Cholesterol-free media + simvastatin (0.04 μM) [1, 18]: 0.8438
- Complete Media [1, 19]: 0.9929
- Difference ([1]; complete media minus cholesterol-free media + simvastatin, […]): 0.15
- Difference [2, 15]: −1.01
- Cholesterol-free [2, 12]: 1.974
- Complete [2, 13]: 0.9607

Structure (SMILES): CN(C)[C@@H]1C(O)=C(C(N)=O)C(=O)[C@@]2(O)C(O)=C3C(=O)c4c(O)c(NC(=O)CN5CCCC5)cc(F)c4C[C@H]3C[C@@H]12 [Eravacycline (dihydrochloride)]
- Cholesterol-free media + simvastatin (0.04 μM) [1, 8]: 0.8088
- Complete Media [1, 9]: 0.7999
- Difference [1, 14]: −0.01
- Cholesterol-free [2, 16]: 0.2139
- Complete [2, 17]: 0.4019
- Difference [2, 26]: 0.19

Structure (SMILES): COc1cc(OC)cc(N(CCNC(C)C)c2ccc3ncc(-c4cnn(C)c4)nc3c2)c1 [Erdafitinib]
- Cholesterol-free media + simvastatin (0.04 μM) [1, 3]: 0.8898
- Complete Media [1, 4]: 0.9602
- Difference [1, 5]: 0.07
- Cholesterol-free [2, 16]: 0.8277
- Complete [2, 17]: 1.177
- Difference [2, 21]: 0.35

Structure (SMILES): O=C(O)CSCC(=O)NC1CCSC1=O (centres unmarked) [Erdosteine]
- Cholesterol-free media + simvastatin (0.04 μM) [1, 3]: 1.196
- Complete Media [1, 4]: 1.238
- Difference [1, 5]: 0.04
- Difference [2, 6]: 0.06
- Cholesterol-free [2, 16]: 1.459
- Complete [2, 17]: 1.516

Structure (SMILES): C#Cc1cccc(Nc2ncnc3cc(OCCOC)c(OCCOC)cc23)c1 [Erlotinib (Hydrochloride)]
- Cholesterol-free media + simvastatin (0.04 μM) [1, 3]: 0.6388
- Complete Media [1, 4]: 0.67
- Difference [1, 5]: 0.03
- Cholesterol-free [2, 16]: 0.2078
- Complete [2, 17]: 0.4921
- Difference [2, 21]: 0.28

Structure (SMILES): C#Cc1cccc(Nc2ncnc3cc(OCCOC)c(OCCOC)cc23)c1 [Erlotinib]
- Cholesterol-free media + simvastatin (0.04 μM) [1, 8]: 0.5219
- Complete Media [1, 9]: 0.4599
- Difference [1, 10]: −0.06
- Difference [2, 24]: −0.17
- Cholesterol-free [2, 25]: 0.6096
- Complete [2, 19]: 0.4429

Structure (SMILES): CCOc1ccc(Cc2cc([C@]34OC[C@](CO)(O3)[C@@H](O)[C@H](O)[C@H]4O)ccc2Cl)cc1.O=C1CC[C@@H](C(=O)O)N1 [Ertugliflozin L-pyroglutamic acid]
- Cholesterol-free media + simvastatin (0.04 μM) [1, 22]: 1.012
- Complete Media [1, 23]: 0.8266
- Difference [1, 27]: −0.19
- Cholesterol-free [2, 16]: 1.319
- Complete [2, 17]: 1.576
- Difference [2, 26]: 0.26

Structure (SMILES): CCOc1ccc(Cc2cc([C@]34OC[C@](CO)(O3)[C@@H](O)[C@H](O)[C@H]4O)ccc2Cl)cc1 [Ertugliflozin]
- Cholesterol-free media + simvastatin (0.04 μM) [1, 3]: 1.703
- Complete Media [1, 4]: 1.808
- Difference [1, 5]: 0.10
- Difference [2, 24]: −0.08
- Cholesterol-free [2, 25]: 1.071
- Complete [2, 19]: 0.9907

Structure (SMILES): CCOC(=O)CCC(=O)O[C@H]1[C@H](O[C@@H]2[C@@H](C)[C@H](O[C@H]3C[C@@](C)(OC)[C@@H](O)[C@H](C)O3)[C@@H](C)C(=O)O[C@H](CC)[C@@](C)(O)[C@H](O)[C@@H](C)C(=O)[C@H](C)C[C@@]2(C)O)O[C@H](C)C[C@@H]1N(C)C [Erythromycin Ethylsuccinate]
- Cholesterol-free media + simvastatin (0.04 μM) [1, 18]: 1.069
- Complete Media [1, 19]: 0.9797
- Difference [1, 27]: −0.09
- Cholesterol-free [2, 7]: 1.248
- Complete ([2]; NCI-H292 cells, complete media): 0.8907
- Difference [2, 26]: −0.36
